Columns and labels:
[1] = Inhibition of linoleic acid lipid peroxidation (AAPH); details: 100 μM compound, 37°C
Procedure: 2.2.2.3 Inhibition of linoleic acid lipid peroxidation
Production of conjugated diene hydroperoxide by oxidation of linoleic acid sodium salt in an aqueous solution was monitored at 234 nm. 2,2’-Azobis(2-amidinopropane) dihydrochloride (AAPH) was used as a free radical initiator. 10 μl of the 16 mM linoleic acid sodium salt solution was added to the UV cuvette containing 0.93 ml of 0.05 M phosphate buffer, pH 7.4 prethermostated at 37°C. The oxidation reaction was initiated at 37°C under air by the addition of 50 μl of 40 mM AAPH solution. Oxidation was carried out in the presence of 10 μl of the examined compounds (stock solution in DMSO). In the assay without antioxidant, lipid oxidation was measured in the presence of the same level of DMSO. The rate of oxidation at 37°C was monitored by recording the increase in absorption at 234 nm caused by conjugated diene hydroperoxides (Table 5). Trolox was used as a standard.
Anti-lipid peroxidation activity. The water-soluble azo compound AAPH has been extensively used as a clean and controllable source of thermally produced alkyl peroxyl free radicals, through spontaneous thermal decomposition. […] In the AAPH assay, the highly reactive alkylperoxyl radicals are intercepted mainly by a hydrogen atom transfer (HAT) from the antioxidant.

[2] = Competition of the tested compounds with DMSO for hydroxyl radicals; details: 100 μM compound, Fe3+/ascorbic acid, 30 min, 37°C
Procedure: 2.2.2.2 Competition of the tested compounds with DMSO for hydroxyl radicals
The hydroxyl radicals generated by the Fe ^3+ /ascorbic acid system, were detected according to Nash, by the determination of formaldehyde produced from the oxidation of DMSO. The reaction mixture contained EDTA (0.1 mM), Fe ^3+ (167 μM), DMSO (33 mM) in phosphate buffer (50 mM, pH 7.4), the tested compounds (concentration 0.1mM) and ascorbic acid (10 mM). After 30 min of incubation (37°C) the reaction was stopped with CCl3COOH (17% w/v) (Table 5). Trolox was used as a standard.
Superoxide (O2^-.) anion and hydroxyl radical (^.OH) are free radical species of potential importance. In the acidic conditions of ischemic brain, O2^-. is probably protonated to give HO2^-. species. Iron released from damaged brain cells is more likely to be readily available to catalyze the generation of OH radicals. Among the ROS, the hydroxyl (^•OH) free radical is possibly the most toxic, as it reacts with a number of biological important molecules. Polyunsaturated fatty acids are found in high concentrations in the CNS, and are particularly vulnerable by free radicals. Thus, we tried to test the ability of our compounds to scavenge hydroxyl radicals. […] All the derivatives of series 13 (except of 13i) present high antioxidant activity (80-100%) which is not able to be correlated with any specific structural characteristic since all contain a coumarin, a purine and an isoxazolyl moiery. […] It seems that the overall molar configuration influences the response. However, antioxidants with hydrophilic or lipophilic character are both needed to act as radical scavengers in the aqueous phase or as chain-breaking antioxidants in biological membranes.

soybean lipoxygenase = biological target: T1, soybean lipoxygenase (Glycine max, UniProt P08170); experiment: Soybean lipoxygenase inhibition in vitro; assay type: biochemical; details: for %LOX @ 100μΜ: 100 μM compound; for inhibition at 100 µM: read-out: %LOX @ 100μΜ; for IC50: read-out: LOX IC50 μΜ
T1 construct: purchased Sigma Chemical, Co. (St. Louis, MO, USA)
T1 sequence (P08170 1-839): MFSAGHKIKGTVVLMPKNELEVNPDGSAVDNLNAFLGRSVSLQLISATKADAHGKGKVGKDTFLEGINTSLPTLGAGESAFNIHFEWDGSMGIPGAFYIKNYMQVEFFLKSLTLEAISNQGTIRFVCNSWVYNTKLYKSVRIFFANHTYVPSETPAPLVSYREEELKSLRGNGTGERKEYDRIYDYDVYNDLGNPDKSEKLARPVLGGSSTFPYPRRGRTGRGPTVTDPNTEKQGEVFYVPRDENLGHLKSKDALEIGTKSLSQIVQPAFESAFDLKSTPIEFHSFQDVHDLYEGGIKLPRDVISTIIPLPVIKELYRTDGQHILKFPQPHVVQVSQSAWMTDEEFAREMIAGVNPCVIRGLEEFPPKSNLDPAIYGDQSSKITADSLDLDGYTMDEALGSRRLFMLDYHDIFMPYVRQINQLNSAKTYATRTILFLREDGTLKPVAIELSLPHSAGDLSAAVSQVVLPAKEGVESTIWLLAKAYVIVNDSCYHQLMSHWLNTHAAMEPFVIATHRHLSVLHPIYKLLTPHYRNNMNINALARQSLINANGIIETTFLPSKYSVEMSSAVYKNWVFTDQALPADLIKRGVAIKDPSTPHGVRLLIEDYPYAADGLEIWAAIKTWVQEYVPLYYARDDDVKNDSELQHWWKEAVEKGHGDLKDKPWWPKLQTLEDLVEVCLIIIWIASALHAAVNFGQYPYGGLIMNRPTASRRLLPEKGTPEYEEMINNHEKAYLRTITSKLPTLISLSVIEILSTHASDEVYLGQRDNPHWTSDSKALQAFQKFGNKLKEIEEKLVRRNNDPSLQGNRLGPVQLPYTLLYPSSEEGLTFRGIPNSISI
Procedure: 2.2.2.4 Soybean lipoxygenase inhibition study in vitro [14]
In vitro study was evaluated as reported previously. The tested compounds dissolved in ethanol were incubated at room temperature with sodium linoleate (0.1 mM) and 0.2 ml of enzyme solution (1/9 x10^-4 w/v in saline). […] Several concentrations were used for the determination of IC50 values (Table 5).
LO is the key enzyme in leukotriene biosynthesis. Leukotrienes derived from the biotransformation of arachidonic acid catalyzed by 5-lipoxygenase (5-LO), are important inflammatory mediators implicated in several diseases. LOs play a role in membrane lipid peroxidation by forming hydroperoxides in the lipid bilayer. […] Most of the LO inhibitors are antioxidants or free radical scavengers, since lipoxygenation occurs via a carbon-centered radical. The evaluation of the novel coumarin hybrids against soybean lipoxygenase LO was accomplished by the UV-based enzyme assay.

[3] = Reducing activity of the stable radical DPPH; details: 100 μM compound, after 20 min
Procedure: 2.2.2.1 Determination of the reducing activity of the stable radical 1, 1-diphenyl-picrylhydrazyl (DPPH)
To a solution of DPPH (100μM) in absolute ethanol an equal volume of the compounds dissolved in ethanol was added. As control solution ethanol was used. The concentration of the solutions of the compounds was 100μM. After 20 and 60 min at room temperature the absorbance was recorded at 517 nm (Table 5). NDGA was used as a standard.
The compounds were studied for their antioxidant activity by the use of the stable 2,2-diphenyl-1-picrylhydrazyl radical (DPPH) at concentration 0.1mM after 20 min. […] This purple colour generally disappears in the presence of an antioxidant. The reduction of absorbance is a measure of the free DPPH due to the action of the antioxidant. The antioxidant activity was expressed as the RA% (Reducing Activity). […] Within the group of derivatives 4 the presence of the morpholinyl or piperidinyl rings at position A as well as the carbonyl group at position B, hinder the interaction of the compounds to the free stable radical DPPH.

Compound | LP % @ 100μΜ (inhibition of lipid peroxidation) [1] | ∙ΟΗ % @ 100μΜ (hydroxyl radical scavenging, percent inhibition of formaldehyde production) ([2]; 100 µM) | %LOX @ 100μΜ (soybean lipoxygenase) | RA% @ 100μΜ (reducing activity, DPPH) [3] | melting point | inhibition at 100 µM (soybean lipoxygenase) | IC50 (soybean lipoxygenase) | ∙ΟΗ % @ 100μΜ (hydroxyl radical scavenging, percent inhibition of formaldehyde production) [2]
Cc1cc(=O)oc2cc(OCC3CC(Cn4cnc5c(N6CCCCC6)ncnc54)=NO3)ccc12 (centres unmarked) [4c] | 65% | did not present any activity and no | no | 17% | 186 to 187 °C |  |  | 
Cc1cc(=O)oc2cc(OCCC3CC(Cn4cnc5c(N6CCCC6)ncnc54)=NO3)ccc12 (centres unmarked) [4j] | 32% | did not present any activity and no |  | 44% | 178 to 180 °C | 37% |  | 
O=C(Oc1ccc2oc(=O)ccc2c1)C1CC(Cn2cnc3c(N4CCCCC4)ncnc32)=NO1 (centres unmarked) [4n] | no | did not present any activity and no |  | 17% | 175 to 177 °C |  | 35 µM | 
O=C(Oc1ccc2oc(=O)ccc2c1)C1CC(Cn2cnc3c(N4CCOCC4)ncnc32)=NO1 (centres unmarked) [4o] | 40% | did not present any activity and no |  | 3% | 184 to 185 °C |  | 60 µM | 
Cc1cc(=O)oc2cc(OCC3=NOC(Cn4cnc5c(N6CCCCC6)ncnc54)C3)ccc12 (centres unmarked) [11d] | 43% | did not present any activity and no |  | 13% | 144 to 145 °C |  | 48 µM | 
O=c1ccc2ccc(OCc3cc(Cn4cnc5c(N6CCOCC6)ncnc54)on3)cc2o1 [15b] | 52% |  |  | no | 185 to 187 °C |  | 100 µM | 48%
O=c1ccc2ccc(OCc3cc(Cn4cnc5c(N6CCCC6)ncnc54)on3)cc2o1 [15c] | 43% |  | 9% | no | 172 to 173 °C | 9% |  | 
O=c1ccc2ccc(OCC3=NOC(n4cnc5c(N6CCCCC6)ncnc54)C3)cc2o1 (centres unmarked) [18a, 7-{[5-(6-piperidin-1-yl-9H-purin-9-yl)-4,5-dihydroisoxazol-3-yl]methoxy}-2H-chromen-2-one] | No | did not present any activity and no |  | 4% | 197 to 199 °C |  | 90 µM | 
O=c1ccc2ccc(OCC3=NOC(n4cnc5c(N6CCOCC6)ncnc54)C3)cc2o1 (centres unmarked) [18b] | 38% | did not present any activity and no |  | 1% | 205 to 206 °C |  | 100 µM | 
Cc1c(C)c2c(c(C)c1O)CCC(C)(C(=O)O)O2 (centres unmarked) [Trolox, reference compound] | 76% |  |  |  |  |  |  | 83%
